# Like-named read-outs stand apart in the source and are kept apart here.
# Experiments:
# Assay type in all cases: cell-based
# [1] = system: Klebsiella (G-) Pneumoniae ATCC; test: In vitro antibacterial activity, standard microdilution MIC assay
# Description: The in vitro antibacterial activity of several tetraalkyl ethenylidenebisphosphonates, fosfomycin and Penicillin G were tested against various gram-positive and gram-negative bacteria using the standard microdilution Minimum Inhibitory Concentration (MIC) assay as disclosed in Laboratory Procedures in Clinical Microbiology (John A. Washington, editor), 281-311 (1985), incorporated herein by reference.
# [2] = system: S. Aureus (G+) ATCC 12715; test: as above; details: S. Aureus (G+) ATCC 12715, penicillin resistant
# [3] = system: P. Aeruginosa (G-) ATCC 27853; test: as above; details: P. Aeruginosa (G-) ATCC 27853, penicillin resistant
# [4] = system: S. Aureus (G+) ATCC 25923; test: as above
# [5] = system: S. Aureus (G+) ATCC 27660; test: as above; details: S. Aureus (G+) ATCC 27660, penicillin resistant
# [6] = system: Clostridium (G+) perfringens ATCC 3624; test: microbe, parasite or virus in culture
# [7] = system: gram-positive microorganisms; test: In vitro antibacterial activity (MIC), comparison with fosfomycin
# [8] = system: Streptococcus (G+) mutans, clinical isolate (second listed); test: In vitro antibacterial activity, standard microdilution MIC assay
# [9] = system: Streptococcus (G+) mutans, clinical isolate (first listed); test: as above
# [10] = system: Streptococcus (G+) mutans, clinical isolate (third listed); test: as above
# [11] = Staphylococcus aureus, ATCC12715, read-out: MIC
# [12] = Pseudomonas aeruginosa, ATCC27853, read-out: MIC
# [13] = Staphylococcus aureus, ATCC25923, read-out: MIC
# [14] = Staphylococcus aureus, ATCC27660, read-out: MIC
Structure (SMILES),MIC [1],MIC [2],MIC [3],MIC [4],MIC [5],"MIC [2, 11]","MIC [3, 12]","MIC [4, 13]","MIC [5, 14]",MIC [6],antibacterial efficacy against gram-positive microorganisms compared with fosfomycin [7],MIC [8],MIC [9],MIC [10],"MIC ([6]; Clostridium, ATCC3624)"
"C=C(P(=O)(OC)OC)P(=O)(OC)OC [A, Tetramethyl ethenylidenebisphosphonate]",405 µg/mL,"1,200 μg/ml","6,300 μg/ml",430 µg/mL,"1,200 μg/ml",,,,,,,,,,
"CC1(C)S[C@@H]2[C@H](NC(=O)Cc3ccccc3)C(=O)N2[C@H]1C(=O)O [E, Penicillin G, reference compound]",,,,,,19000 µg/mL,24000 µg/mL,25 µg/mL,25000 µg/mL,,,,,,
"C=C(P(=O)(OCC)OCC)P(=O)(OCC)OCC [B, Tetraethyl ethenylidenebisphosphonate]",,180 µg/mL,"25,000 μg/ml",110 µg/mL,160 µg/mL,,,,,52 µg/mL,,,,,
"C[C@@H]1O[C@@H]1P(=O)(O)O [D, Fosfomycin, reference compound]",,,,,,72 µg/mL,31 µg/mL,56 µg/mL,180 µg/mL,,,,,,
"C=C(P(=O)(OCCCC)OCCCC)P(=O)(OCCCC)OCCCC [C, Tetrabutyl ethenylidenebisphosphonate]",,,,,,6.5 µg/mL,25000 µg/mL,4.5 µg/mL,6.5 µg/mL,,superior to fosfomycin,11 µg/mL,1.2 µg/mL,11 µg/mL,2.1 µg/mL
